17 molecules from ChEMBL document CHEMBL4842357, “Discovery of Novel Apigenin-Piperazine Hybrids as Potent and Selective Poly (ADP-Ribose) Polymerase-1 (PARP-1) Inhibitors for the Treatment of Cancer” (J Med Chem, 2021) can be followed below.

One may read the IC50 as the concentration that gives 50% inhibition.

Structures are written as SMILES.

Chain of Poly [ADP-ribose] polymerase 1 (P09874 whole entry): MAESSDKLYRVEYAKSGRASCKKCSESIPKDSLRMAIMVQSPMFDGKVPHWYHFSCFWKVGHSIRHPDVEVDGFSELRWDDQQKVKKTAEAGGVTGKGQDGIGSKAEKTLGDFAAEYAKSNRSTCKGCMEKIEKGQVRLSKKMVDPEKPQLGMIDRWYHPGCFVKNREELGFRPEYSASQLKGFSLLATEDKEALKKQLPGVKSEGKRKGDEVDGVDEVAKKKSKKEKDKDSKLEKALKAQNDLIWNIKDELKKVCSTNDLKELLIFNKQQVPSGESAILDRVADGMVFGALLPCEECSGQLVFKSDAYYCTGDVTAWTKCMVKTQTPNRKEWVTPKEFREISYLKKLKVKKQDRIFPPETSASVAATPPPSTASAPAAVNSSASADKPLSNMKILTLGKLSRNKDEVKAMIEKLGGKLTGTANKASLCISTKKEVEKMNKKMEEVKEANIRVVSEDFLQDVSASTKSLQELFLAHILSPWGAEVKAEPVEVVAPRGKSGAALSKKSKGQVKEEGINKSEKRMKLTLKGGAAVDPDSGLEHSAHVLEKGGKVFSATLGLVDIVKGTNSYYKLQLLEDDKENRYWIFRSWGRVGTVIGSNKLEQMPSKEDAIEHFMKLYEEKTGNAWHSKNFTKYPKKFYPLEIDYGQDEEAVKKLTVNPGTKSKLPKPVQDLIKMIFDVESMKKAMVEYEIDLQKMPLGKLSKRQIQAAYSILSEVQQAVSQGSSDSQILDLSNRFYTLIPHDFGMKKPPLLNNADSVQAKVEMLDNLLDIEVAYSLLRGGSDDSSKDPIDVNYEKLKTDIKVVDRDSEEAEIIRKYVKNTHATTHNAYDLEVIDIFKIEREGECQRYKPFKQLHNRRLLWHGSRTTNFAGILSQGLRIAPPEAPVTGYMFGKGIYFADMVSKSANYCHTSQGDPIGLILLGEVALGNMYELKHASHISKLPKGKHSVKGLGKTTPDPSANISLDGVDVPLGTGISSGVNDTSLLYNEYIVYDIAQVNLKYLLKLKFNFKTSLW

For one experiment, the target named is Poly [ADP-ribose] polymerase 2 (Homo sapiens, UniProt Q9UGN5). As to the kind of experiment: Inhibition of recombinant human full-length PARP-2 using biotinylated substrate.
Chain of Poly [ADP-ribose] polymerase 2 (Q9UGN5 whole entry): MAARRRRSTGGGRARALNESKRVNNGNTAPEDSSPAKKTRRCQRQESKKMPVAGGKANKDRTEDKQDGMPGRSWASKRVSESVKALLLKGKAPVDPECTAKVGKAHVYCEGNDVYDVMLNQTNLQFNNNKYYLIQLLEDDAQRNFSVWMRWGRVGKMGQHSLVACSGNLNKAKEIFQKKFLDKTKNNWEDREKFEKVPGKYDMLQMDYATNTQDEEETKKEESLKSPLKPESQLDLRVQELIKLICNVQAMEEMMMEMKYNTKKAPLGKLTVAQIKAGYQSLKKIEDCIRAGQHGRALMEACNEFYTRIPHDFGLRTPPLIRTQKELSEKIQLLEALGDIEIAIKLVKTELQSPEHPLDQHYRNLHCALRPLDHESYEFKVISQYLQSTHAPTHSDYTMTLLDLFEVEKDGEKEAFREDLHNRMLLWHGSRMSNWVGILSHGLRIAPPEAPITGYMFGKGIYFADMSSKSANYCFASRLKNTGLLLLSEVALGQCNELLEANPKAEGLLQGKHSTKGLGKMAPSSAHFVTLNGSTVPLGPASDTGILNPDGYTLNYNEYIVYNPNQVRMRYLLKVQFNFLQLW
For the molecule `O=c1cc(-c2ccc(O)cc2)oc2c(CN3CCN(Cc4ccncc4)CC3)c(O)cc(O)c12`, the IC50 amounted to 1100 nM.
The same measure, in the same setting: for `O=c1cc(-c2cccc(-c3c(O)cc(O)c4c(=O)cc(-c5ccco5)oc34)c2)oc2cc(O)cc(O)c12` the value was 14700 nM; for `O=c1cc(-c2ccc(O)cc2)oc2c(CN3CCC(CO)CC3)c(O)cc(O)c12`, 4800 nM.
Take `O=C(c1ccncc1)N1CCN(Cc2c(O)cc(O)c3c(=O)cc(-c4ccc(O)cc4)oc23)CC1`: the half-inhibitory concentration (IC50) was 1400 nM.
Same read-out and setting: for `CCOC(=O)C1CCN(Cc2c(O)cc(O)c3c(=O)cc(-c4ccc(O)cc4)oc23)CC1` the value was 5600 nM; for `O=c1cc(-c2ccc(O)cc2)oc2c(CN3CCN(Cc4ccoc4)CC3)c(O)cc(O)c12`, 2600 nM.
Consider `O=C(c1cccc(C(F)(F)F)c1)N1CCN(Cc2c(O)cc(O)c3c(=O)cc(-c4ccc(O)cc4)oc23)CC1`, for which the IC50 stood at 2900 nM.
On the same count and under the same terms, under `O=c1cc(-c2ccc(O)cc2)oc2c(CN3CCN(c4ccc(F)cc4)CC3)c(O)cc(O)c12` stands 2900 nM; under `O=c1cc(-c2ccc(O)cc2)oc2c(CN3CCN(c4cncnc4)CC3)c(O)cc(O)c12`, 1800 nM; under `O=c1cc(-c2ccc(O)cc2)oc2c(CN3CCN(Cc4ccc(F)cc4)CC3)c(O)cc(O)c12`, 2000 nM.
As to `Cc1ccc(CN2CCN(Cc3c(O)cc(O)c4c(=O)cc(-c5ccc(O)cc5)oc34)CC2)cc1`, the IC50 was 1800 nM.
Consider `O=C(C1CCC1)N1CCN(Cc2c(O)cc(O)c3c(=O)cc(-c4ccc(O)cc4)oc23)CC1`, for which the IC50 is 2600 nM.
On the same count and under the same terms, under `Cc1ccc(N2CCN(Cc3c(O)cc(O)c4c(=O)cc(-c5ccc(O)cc5)oc34)CC2)cc1` stands 2800 nM; under `O=C(C1CC1)N1CCN(Cc2c(O)cc(O)c3c(=O)cc(-c4ccc(O)cc4)oc23)CC1`, 2500 nM.
Consider `Cc1cc(C)cc(COC(=O)N2CCN(Cc3c(O)cc(O)c4c(=O)cc(-c5ccc(O)cc5)oc34)CC2)c1`, for which the IC50 came to 2000 nM.
On the same count and under the same terms, for `Cc1ccc(-c2cc(=O)c3c(O)cc(O)c(-c4cccc(-c5cc(=O)c6c(O)cc(O)cc6o5)c4)c3o2)cc1` the value was 12500 nM; for `O=c1cc(-c2ccc(O)cc2)oc2c(CN3CCC(c4ccccc4)CC3)c(O)cc(O)c12`, 4000 nM.

For a further experiment, the species on record is Homo sapiens. As to the kind of experiment: Selectivity index, ratio of IC50 for inhibition of recombinant human full-length PARP-2 to IC50 for inhibition of recombinant human full-length PARP-1.
For `O=c1cc(-c2ccc(O)cc2)oc2c(CN3CCN(Cc4ccncc4)CC3)c(O)cc(O)c12`, the Ratio IC50 was 55.5.
In the case of `O=c1cc(-c2cccc(-c3c(O)cc(O)c4c(=O)cc(-c5ccco5)oc34)c2)oc2cc(O)cc(O)c12`, the Ratio IC50 is 38.
Same read-out and setting: for `O=c1cc(-c2ccc(O)cc2)oc2c(CN3CCC(CO)CC3)c(O)cc(O)c12` the value was 59.8.
In the case of `O=C(c1ccncc1)N1CCN(Cc2c(O)cc(O)c3c(=O)cc(-c4ccc(O)cc4)oc23)CC1`, the Ratio IC50 came out at 50.7.
Still for that read-out and setting: under `CCOC(=O)C1CCN(Cc2c(O)cc(O)c3c(=O)cc(-c4ccc(O)cc4)oc23)CC1` stands 60.3.
Same read-out and setting: for `O=c1cc(-c2ccc(O)cc2)oc2c(CN3CCN(Cc4ccoc4)CC3)c(O)cc(O)c12` the value was 59.4; for `O=C(c1cccc(C(F)(F)F)c1)N1CCN(Cc2c(O)cc(O)c3c(=O)cc(-c4ccc(O)cc4)oc23)CC1`, 69.2; for `O=c1cc(-c2ccc(O)cc2)oc2c(CN3CCN(c4ccc(F)cc4)CC3)c(O)cc(O)c12`, 56.4.
Take `O=c1cc(-c2ccc(O)cc2)oc2c(CN3CCN(c4cncnc4)CC3)c(O)cc(O)c12`: the Ratio IC50 turned out to be 61.
Still for that read-out and setting: for `O=c1cc(-c2ccc(O)cc2)oc2c(CN3CCN(Cc4ccc(F)cc4)CC3)c(O)cc(O)c12` the value was 58.
Still for that read-out and setting: for `Cc1ccc(CN2CCN(Cc3c(O)cc(O)c4c(=O)cc(-c5ccc(O)cc5)oc34)CC2)cc1` the value was 58.8; for `O=C(C1CCC1)N1CCN(Cc2c(O)cc(O)c3c(=O)cc(-c4ccc(O)cc4)oc23)CC1`, 57.1.
Turning to `Cc1ccc(N2CCN(Cc3c(O)cc(O)c4c(=O)cc(-c5ccc(O)cc5)oc34)CC2)cc1`, the Ratio IC50 was found to be 57.7.
Turning to `O=C(C1CC1)N1CCN(Cc2c(O)cc(O)c3c(=O)cc(-c4ccc(O)cc4)oc23)CC1`, the Ratio IC50 was 66.7.
Regarding `Cc1cc(C)cc(COC(=O)N2CCN(Cc3c(O)cc(O)c4c(=O)cc(-c5ccc(O)cc5)oc34)CC2)c1`, the Ratio IC50 stood at 57.8.
As for `Cc1ccc(-c2cc(=O)c3c(O)cc(O)c(-c4cccc(-c5cc(=O)c6c(O)cc(O)cc6o5)c4)c3o2)cc1`, the Ratio IC50 was determined as 42.2.
On the same count and under the same terms, under `O=c1cc(-c2ccc(O)cc2)oc2c(CN3CCC(c4ccccc4)CC3)c(O)cc(O)c12` stands 55.6.

Another experiment addresses Poly [ADP-ribose] polymerase 1 (Homo sapiens, UniProt P09874). As to the kind of experiment: Inhibition of recombinant human full-length PARP-1 using biotinylated substrate.
On to `O=c1cc(-c2ccc(O)cc2)oc2c(CN3CCN(Cc4ccncc4)CC3)c(O)cc(O)c12`, for which the concentration for half-maximal inhibition (IC50) was 19.8 nM.
Take `O=c1cc(-c2cccc(-c3c(O)cc(O)c4c(=O)cc(-c5ccco5)oc34)c2)oc2cc(O)cc(O)c12`: the IC50 came to 386 nM.
For the molecule `O=c1cc(-c2ccc(O)cc2)oc2c(CN3CCC(CO)CC3)c(O)cc(O)c12`, the IC50 is 80.2 nM.
For the molecule `O=C(c1ccncc1)N1CCN(Cc2c(O)cc(O)c3c(=O)cc(-c4ccc(O)cc4)oc23)CC1`, the IC50 stood at 27.6 nM.
`CCOC(=O)C1CCN(Cc2c(O)cc(O)c3c(=O)cc(-c4ccc(O)cc4)oc23)CC1`: the concentration for half-maximal inhibition (IC50) is 92.8 nM.
Take `O=c1cc(-c2ccc(O)cc2)oc2c(CN3CCN(Cc4ccoc4)CC3)c(O)cc(O)c12`: the IC50 worked out at 43.8 nM.
Same read-out and setting: for `O=C(c1cccc(C(F)(F)F)c1)N1CCN(Cc2c(O)cc(O)c3c(=O)cc(-c4ccc(O)cc4)oc23)CC1` the value was 41.9 nM.
Same read-out and setting: under `O=c1cc(-c2ccc(O)cc2)oc2c(CN3CCN(c4ccc(F)cc4)CC3)c(O)cc(O)c12` stands 51.4 nM; under `O=c1cc(-c2ccc(O)cc2)oc2c(CN3CCN(c4cncnc4)CC3)c(O)cc(O)c12`, 29.5 nM; under `O=c1cc(-c2ccc(O)cc2)oc2c(CN3CCN(Cc4ccc(F)cc4)CC3)c(O)cc(O)c12`, 34.5 nM.
Turning to `Cc1ccc(CN2CCN(Cc3c(O)cc(O)c4c(=O)cc(-c5ccc(O)cc5)oc34)CC2)cc1`, the concentration for half-maximal inhibition (IC50) was found to be 30.6 nM.
The same measure, in the same setting: for `O=C(C1CCC1)N1CCN(Cc2c(O)cc(O)c3c(=O)cc(-c4ccc(O)cc4)oc23)CC1` the value was 45.5 nM; for `Cc1ccc(N2CCN(Cc3c(O)cc(O)c4c(=O)cc(-c5ccc(O)cc5)oc34)CC2)cc1`, 48.5 nM.
The same measure, in the same setting: for `O=C(C1CC1)N1CCN(Cc2c(O)cc(O)c3c(=O)cc(-c4ccc(O)cc4)oc23)CC1` the value was 37.5 nM; for `Cc1cc(C)cc(COC(=O)N2CCN(Cc3c(O)cc(O)c4c(=O)cc(-c5ccc(O)cc5)oc34)CC2)c1`, 34.6 nM; for `Cc1ccc(-c2cc(=O)c3c(O)cc(O)c(-c4cccc(-c5cc(=O)c6c(O)cc(O)cc6o5)c4)c3o2)cc1`, 296 nM.
The same measure, in the same setting: for `O=c1cc(-c2ccc(O)cc2)oc2c(CN3CCC(c4ccccc4)CC3)c(O)cc(O)c12` the value was 71.9 nM.
